In US20230047393A1 (EWHA DrugDesignHouse Co.,Ltd., priority 2021, published 2023):
Values after ≈ are worked out from the molar mass of the structure shown. Read-outs that look alike come from different tables or passages of the source.

Experiments:
rabbit PVR trauma model = details: intravitreal injection; cited from earlier work
[1] = test system: TFG-β2-treated trabecular meshwork cell cultures; details: cited from earlier work
rabbit GFS model = details: cited from earlier work
[2] = test system: TFG-β2-treated perfused human anterior segments; details: cited from earlier work
[3] = test system: laser-induced CNV in retina of mice; details: day 14 after laser-induced CNV formation, vs PBS treated control (p<0.05, n=5 per group); cited from earlier work
mouse B16 melanoma model = details: cited from earlier work; for progression of melanoma: mouse B16 melanoma model, with enhanced CTL responses
[4] = test system: rabbit model of trabeculectomy; details: cited from earlier work
[5] = test system: human lens epithelial cells line SRA01/04; details: SRA01/04 cells, nontoxic concentrations; cited from earlier work
[6] = test system: liver of bile duct ligated rats; details: cited from earlier work
MMTV/c-Neu mice = details: cited from earlier work
[7] = Effect of metal ion on thermal stability of EW-7197 (40° C.); assay type: physicochemical; details: 100 ppm aluminum ions or iron ions, with or without EDTA, PE bottles
Protocol: After the preparation of each formulation, the formulation was filtered. The filtrate was filled into a PE bottle, and stored in a thermostatic chamber (40° C.).
In this study, the final concentration of aluminum ions or iron ions was 100 ppm, and the PE ophthalmic bottles were used as containers.

[8] = test system: 4T1 orthotopic-grafted mice; details: cited from earlier work
[9] = Solubility of EW-7197 at various pH values; assay type: physicochemical; details: thermodynamic from solid
Text: In order to use EW-7197 for treating or preventing TFG-β signaling related ocular diseases, postsurgical peritoneal adhesions, postsurgical anastomotic strictures, hypertrophic scar, or keloid in human, formulation development of an aqueous solution containing appropriate amounts of EW-7197 is needed.

Col8a2 knock-in mice = details: cited from earlier work
[10] = Photostability of EW-7197 in buffer solutions (ultraviolet and visible light); assay type: physicochemical; details: solution left in a room for a whole day under fluorescent lighting (about 1000 lx per hour)
Protocol: The formulations used in the photostability test are the same formulations (excluding A13, A16, A19, and A22) used for evaluation of thermal stability shown in Table 4. After preparation, each formulation was filtered. About 3 mL of the filtrate was filled in a glass ampule, and illuminated with ultraviolet light of 50 W·h/m^2 and visible light of 300,000 lx·hr by a photostability test chamber. […] Generally, illumination under white fluorescent lighting is about 1000 lx per hour. […] Therefore, EW-7197 needs to be stored in light shielded conditions.

[11] = Solubility of EW-7197 with various solubilizing agents (4° C. and 25° C.); assay type: physicochemical; details: for EW-7197 dissolved: 1% of each surfactant, boric acid/sodium borate pH7.5
Text: The buffer solution used in this study was 0.9% boric acid/0.1% sodium borate (pH7.5). […] After confirming that the formulations were suspended at each temperature, each formulation was filtered.

[12] = test system: kidney of mice with unilateral ureteral obstruction; details: cited from earlier work
[13] = test system: lung of bleomycin-treated mice; details: cited from earlier work
[14] = test system: MDA-MB-231-xenografted mouse model; details: cited from earlier work
[15] = test system: peritoneal adhesions rat model; details: dose-dependent; cited from earlier work
[16] = test system: adhesion bands mouse model; details: cited from earlier work
[17] = test system: liver of CCl4-treated mice; details: cited from earlier work
rat esophagus = details: after SEMS placement in the rat esophagus; cited from earlier work
CML-affected mice = details: combined with ponatinib, compared to ponatinib alone; cited from earlier work
[18] = test system: mouse model of ulcerative colitis; details: cited from earlier work
[19] = Solubility of EW-7197 in PEG/poloxamer formulations (5° C. and 25° C.); assay type: physicochemical; details: formulations containing 25% PEG4000 and 10% poloxamer 407
Protocol: After confirming that the formulation was suspended at each temperature, the suspension was filtered. The EW-7197 content of the filtrate was measured by HPLC.

c1ccc(-c2[nH]ncc2-c2ccnc3ccccc23)nc1 [LY-364947]
PVR development and subsequent tractional retinal detachment (rabbit PVR trauma model): prevents

NC(=O)c1ccc(-c2nc(-c3ccc4c(c3)OCO4)c(-c3ccccn3)[nH]2)cc1 [SB-431542]
levels of fibronectin and plasminogen activator inhibitor-1 (PAI-1) [1]: reduces
post-surgical scarring and fibrosis after GFS (rabbit GFS model): decreases
level of fibronectin [2]: reduces

Cc1cccc(-c2nn3c(c2-c2ccnc4ccc(C(N)=O)cc24)CCC3)n1 [LY-2157299, reference compound]
neovascular area in retina [3]: reduces
progression of melanoma (mouse B16 melanoma model): suppress

Cc1cccc(-c2[nH]c(C(C)(C)C)nc2-c2ccc3c(c2)OCO3)n1 [SB-505124]
TFG-β activity [4]: inhibited
bleb survival [4]: promoted
ocular scarring following GFS (rabbit GFS model): prevents

Cc1ccc(=O)n(-c2ccccc2)c1 [Pirfenidone]
TGF-β-induced proliferation, migration, and EMT [5]: inhibits

Cc1cccc(-c2[nH]c(CNc3ccccc3F)nc2-c2ccc3ncnn3c2)n1 [EW-7197, 2-fluoro-N-((5-(6-methylpyridin-2-yl)-4-([1,2,4]triazolo[1,5-a]pyridin-6-yl)-1H-imidazol-2-yl)methyl)aniline]
expression of collagen, aSMA, fibronectin, 4-hydroxy-2,3-nonenal, and integrins [6]: decreases
Smad/TGF-β signaling, cell migration, invasion, and lung metastasis (MMTV/c-Neu mice): inhibits
effect of metal ions on thermal stability of EW-7197 [7]: neither aluminum ions nor iron ions affected the thermal stability
CTL activity [8]: enhanced
Smad/TGF-β signaling, cell migration, invasion, and lung metastasis [8]: inhibits
solubility ([9]; 0.1N NaOH, pH 12.86, aqueous buffer, pH 12.86, 0.1N NaOH, pH after equilibration 12.53, read-out: Solubility Average (n = 2)): 437 µg/mL (≈ 1090 µM)
solubility ([9]; 0.1N NaOH, pH 12.86, aqueous buffer, pH 12.86, 0.1N NaOH, pH after equilibration 12.53, read-out: Solubility Trial 1): 396 µg/mL (≈ 991 µM)
solubility ([9]; 0.1N NaOH, pH 12.86, aqueous buffer, pH 12.86, 0.1N NaOH, pH after equilibration 12.53, read-out: Solubility Trial 2): 478 µg/mL (≈ 1200 µM)
solubility ([9]; citrate buffer, pH 3, aqueous buffer, pH 3.0, Citrate buffer, pH after equilibration 3.30, read-out: Solubility Average (n = 2)): 1010 µg/mL (≈ 2540 µM)
solubility ([9]; citrate buffer, pH 3, aqueous buffer, pH 3.0, Citrate buffer, pH after equilibration 3.30, read-out: Solubility Trial 1): 1000 µg/mL (≈ 2500 µM)
solubility ([9]; citrate buffer, pH 3, aqueous buffer, pH 3.0, Citrate buffer, pH after equilibration 3.30, read-out: Solubility Trial 2): 1030 µg/mL (≈ 2580 µM)
solubility ([9]; citrate buffer, pH 4, aqueous buffer, pH 4.0, Citrate buffer, pH after equilibration 4.16, read-out: Solubility Average (n = 2)): 105 µg/mL (≈ 263 µM)
solubility ([9]; citrate buffer, pH 4, aqueous buffer, pH 4.0, Citrate buffer, pH after equilibration 4.16, read-out: Solubility Trial 1): 110 µg/mL (≈ 275 µM)
solubility ([9]; citrate buffer, pH 4, aqueous buffer, pH 4.0, Citrate buffer, pH after equilibration 4.16, read-out: Solubility Trial 2): 100 µg/mL (≈ 250 µM)
solubility ([9]; citrate buffer, pH 5, aqueous buffer, pH 5.0, Citrate buffer, pH after equilibration 4.90, read-out: Solubility Average (n = 2)): 20 µg/mL (≈ 50.1 µM)
solubility ([9]; citrate buffer, pH 5, aqueous buffer, pH 5.0, Citrate buffer, pH after equilibration 4.90, read-out: Solubility Trial 1): 19 µg/mL (≈ 47.6 µM)
solubility ([9]; citrate buffer, pH 5, aqueous buffer, pH 5.0, Citrate buffer, pH after equilibration 4.90, read-out: Solubility Trial 2): 21 µg/mL (≈ 52.6 µM)
solubility ([9]; hydrochloric acid buffer, pH 1.2, simulated gastric fluid, pH 1.2, Hydrochloric acid buffer, pH after equilibration 2.81, read-out: Solubility Average (n = 2)): 25000 µg/mL (≈ 62700 µM)
solubility ([9]; hydrochloric acid buffer, pH 1.2, simulated gastric fluid, pH 1.2, Hydrochloric acid buffer, pH after equilibration 2.81, read-out: Solubility Trial 1): 25100 µg/mL (≈ 62700 µM)
solubility ([9]; hydrochloric acid buffer, pH 1.2, simulated gastric fluid, pH 1.2, Hydrochloric acid buffer, pH after equilibration 2.81, read-out: Solubility Trial 2): 25000 µg/mL (≈ 62700 µM)
solubility ([9]; hydrochloric acid buffer, pH 2, simulated gastric fluid, pH 2.0, Hydrochloric acid buffer, pH after equilibration 2.97, read-out: Solubility Average (n = 2)): 2900 µg/mL (≈ 7270 µM)
solubility ([9]; hydrochloric acid buffer, pH 2, simulated gastric fluid, pH 2.0, Hydrochloric acid buffer, pH after equilibration 2.97, read-out: Solubility Trial 1): 2930 µg/mL (≈ 7340 µM)
solubility ([9]; hydrochloric acid buffer, pH 2, simulated gastric fluid, pH 2.0, Hydrochloric acid buffer, pH after equilibration 2.97, read-out: Solubility Trial 2): 2880 µg/mL (≈ 7210 µM)
solubility ([9]; phosphate buffer, pH 6, aqueous buffer, pH 6.0, Phosphate buffer, pH after equilibration 5.96, read-out: Solubility Average (n = 2)): 12 µg/mL (≈ 30 µM)
solubility ([9]; phosphate buffer, pH 6, aqueous buffer, pH 6.0, Phosphate buffer, pH after equilibration 5.96, read-out: Solubility Trial 1): 12 µg/mL (≈ 30 µM)
solubility ([9]; phosphate buffer, pH 6, aqueous buffer, pH 6.0, Phosphate buffer, pH after equilibration 5.96, read-out: Solubility Trial 2): 12 µg/mL (≈ 30 µM)
solubility ([9]; phosphate buffer, pH 6.8, aqueous buffer, pH 6.8, Phosphate buffer, pH after equilibration 6.79, read-out: Solubility Average (n = 2)): 12 µg/mL (≈ 30 µM)
solubility ([9]; phosphate buffer, pH 6.8, aqueous buffer, pH 6.8, Phosphate buffer, pH after equilibration 6.79, read-out: Solubility Trial 1): 11 µg/mL (≈ 27.5 µM)
solubility ([9]; phosphate buffer, pH 6.8, aqueous buffer, pH 6.8, Phosphate buffer, pH after equilibration 6.79, read-out: Solubility Trial 2): 13 µg/mL (≈ 32.5 µM)
solubility ([9]; phosphate buffer, pH 7.4, aqueous buffer, pH 7.4, Phosphate buffer, pH after equilibration 7.32, read-out: Solubility Average (n = 2)): 13 µg/mL (≈ 32.5 µM)
solubility ([9]; phosphate buffer, pH 7.4, aqueous buffer, pH 7.4, Phosphate buffer, pH after equilibration 7.32, read-out: Solubility Trial 1): 13 µg/mL (≈ 32.5 µM)
solubility ([9]; phosphate buffer, pH 7.4, aqueous buffer, pH 7.4, Phosphate buffer, pH after equilibration 7.32, read-out: Solubility Trial 2): 13 µg/mL (≈ 32.5 µM)
solubility ([9]; water / aqueous solution, aqueous buffer, in an acceptable pH range for ophthalmic solution, read-out: water solubility): 10 to 20 µg/mL (≈ 25 to 50.1 µM)
solubility ([9]; water, pH 7.17, water, Water, pH after equilibration 7.17, read-out: Solubility Average (n = 2)): 9 µg/mL (≈ 22.5 µM)
solubility ([9]; water, pH 7.17, water, Water, pH after equilibration 7.17, read-out: Solubility Trial 1): 9 µg/mL (≈ 22.5 µM)
solubility ([9]; water, pH 7.17, water, Water, pH after equilibration 7.17, read-out: Solubility Trial 2): 9 µg/mL (≈ 22.5 µM)
fibronectin expression (Col8a2 knock-in mice; 0.004%, 0.02%, and 0.1%, dose-dependent): suppresses
decrease in corneal endothelial cells and/or corneal endothelial disorders represented by overexpression of ECM (Col8a2 knock-in mice; 0.02% eye drop administration): effectively suppresses
EW-7197 decomposed by light [10]: 1-5%
EW-7197 dissolved ([11]; 4° C.): about 0.01%
EW-7197 dissolved ([11]; 25° C.): about 0.02%
upper limit of concentration of EW-7197 ([11]; formulation with 1% tyloxapol, 4% PEG4000, and 2% niacinamide): about 0.015%
expression of collagen, aSMA, fibronectin, 4-hydroxy-2,3-nonenal, and integrins [12]: decreases
expression of collagen, aSMA, fibronectin, 4-hydroxy-2,3-nonenal, and integrins [13]: decreases
paclitaxel-induced epithelial-mesenchymal transition (EMT) and cancer stem-like cells properties [14]: suppresses
progression of melanoma (mouse B16 melanoma model): suppress
efficacy compared with LY-2157299 (mouse B16 melanoma model; oral EW-7197 2.5 mg/kg once daily vs LY-2157299 75 mg/kg bid): more effective
incidence, quality, and tenacity of peritoneal adhesions [15]: reduces
frequency and stability of adhesion bands [16]: prevents
expression of collagen, aSMA, fibronectin, 4-hydroxy-2,3-nonenal, and integrins [17]: decreases
granulation tissue formation (rat esophagus): suppresses
disease relapse and survival (CML-affected mice): significantly delays disease relapse and prolongs survival
clinical symptoms of colitis [18]: ameliorates
excessive collagen deposition and fibrosis in colitis tissues [18]: inhibits
overexpression of proinflammatory and profibrotic genes [18]: suppresses
solubility of EW-7197 [19]: about 0.125%
